Test results reported in patent US20160355530A1, “HEPATITIS C INHIBITORS AND USES THEREOF” (AbbVie Inc., priority 2010, published 2016).
Read-outs that look alike come from different tables or passages of the source.

Tests used:
[1] = biological target: T1, HCV NS5B polymerase 1b Rice (Hepatitis C virus genotype 1b, UniProt Q9WMX2); assay: HCV NS5B polymerase enzymatic inhibition assay, strain 1b Rice; type: biochemical, HCV genotype 1b; conditions: enzyme
T1 construct: six-histidine tag; made in house; host or cells: E. coli
Procedure: Purified HCV NS5B polymerase enzymes were used for polymerase inhibition assays. All recombinant HCV polymerases contained the first 570 amino acids of the 591 amino acid native protein sequence and a six-histidine tag at the N-terminus or C-terminus to facilitate purification by affinity chromatography. The DNA nucleotide sequence for the HCV polymerase 1b BK strain was codon optimized for expression in E. coli. A synthetic gene was prepared from a series of overlapping oligonucleotides that were filled in using a DNA polymerase and amplified by PCR. The patient isolate HCV polymerases were cloned by RT-PCR methods using HCV RNA extracted from the serum of infected subjects obtained from ProMedDx and BioCollections (genotypes 2a, 2b, 3a, and 4a). Laboratory strains were cloned from plasmid DNA (1a-H77 or 1a-H77-C316Y) or from existing replicon cells (1b Rice). In all cases the amplified DNA was cloned into a protein expression vector (typically a pET vector from Novagen) and then multiple clones were sequenced to identify one whose NS5B sequence agreed with the population sequence. This sequence-confirmed clone was then transfected into E. coli for protein expression and purification. E. coli cultures were grown to a maximum optical density (OD) of 2-3 and then induced with 0.4 mM isopropyl beta-D-thiogalactopyranoside (IPTG) and grown for 20 hours at 20° C.
Proteins were purified using nickel affinity chromatography, and additional column steps were added including, ion exchange, size exclusion, hydrophobic ion, and poly-U affinity chromatography, as needed, depending on the sample being purified. The template RNA used in the polymerase enzymatic assay was a 2.1 kb construct that corresponds to the 3′-end of an HCV genotype 1b negative strand RNA.
The reaction was initiated by the addition of 20 μM CTP, 20 μM ATP, 0.284 μM (0.5 μCi) of 5,6-[^3H] UTP, 5 nM template RNA and 0.1 U/μL RNase inhibitor (RNasin, Promega), and allowed to proceed for three hours at 30° C. The final reaction volume was 50 μL. The reaction was terminated by the addition of 50 uL of 4 mM spermine in 10 mM Tris-HCl, pH 7.5, 1 mM EDTA. The quenched reaction was allowed to incubate for at least 15 minutes at room temperature, and then the precipitated RNA was captured by filtration through a glass fiber filter (GF/B, Millipore) in a 96 well format. The filter plate was washed five times with 200 μL of 2 mM spermine, 10 mM Tris-HCl, pH 8.0, 1 mM EDTA, and two times with ethanol. After drying thoroughly in air, 30 μL of Microscint-20 scintillation cocktail (Perkin Elmer) was added to each well, and the retained cpm were determined by scintillation counting. IC50 values were determined by nonlinear regression.
% Inhibition=100*[[I]/([I]+[IC50])] equation 1
V=kcat[S]/2(Km+[S])*(sqrt((IC50+I−E)̂2+(4*IC50*E))−(IC50+I−E)) equation 2

[2] = system: HCV 1a-H77-C316Y transient subgenomic replicon in Huh-7 derived cell line; assay: microbe, parasite or virus in culture; type: cell-based, HCV genotype 1a; conditions: for EC50: Hepatitis C virus, Huh-7, read-out: Transient Replicon 1a H77-C316Y 5% FBS EC50; for Transient Replicon Fold Resistance C316Y/1a: ratio of transient replicon EC50s, C316Y / 1a H77
How it was run: (§1)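 Subgenomic replicon RNA (no Neo gene) electroporated into Huh-7-derived cells, plated at 5×10^3 cells/well; a 4 h plate gauged transfection efficiency. Cells exposed to 3-fold compound dilutions (0.5% DMSO) for 4 days at 37° C, then lysed for luciferase readout; EC50 calculated.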

[3] = system: HCV 1a-H77 transient subgenomic replicon in Huh-7 derived cell line; assay: microbe, parasite or virus in culture; type: cell-based, HCV genotype 1a; conditions: Hepatitis C virus, Huh-7; transient replicon, 5% FBS; read-out: Transient Replicon 1a H77 5% FBS EC50
How it was run: as §1

[4] = biological target: T2, HCV NS5B polymerase 1b BK strain (Hepatitis C virus genotype 1b, UniProt P26663); assay: HCV NS5B polymerase enzymatic inhibition assay, strain 1b BK; type: biochemical; conditions: enzyme, strain 1b BK; read-out: HCV Polymerase Strain 1b BK IC50
T2 construct: six-histidine tag; made in house; host or cells: E. coli
How it was run: (§2)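 E. coli-expressed NS5B (residues 1-570, His-tagged) transcribed a 2.1 kb HCV 1b negative-strand 3′-end RNA template (5 nM) with 20 μM CTP, 20 μM ATP and 0.284 μM [3H]UTP for 3 h at 30° C. Spermine-precipitated RNA was filter-captured and counted by scintillation; IC50 from nonlinear regression.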

[5] = biological target: T3, HCV NS5B polymerase 1a-H77 (Hepatitis C virus genotype 1a, UniProt P27958); assay: biochemical; set-up: species or system HCV genotype 1a; conditions: enzyme, strain 1a H77; read-out: HCV Polymerase Strain 1a H77 IC50
T3 construct: six-histidine tag; made in house; host or cells: E. coli
How it was run: as §2

[6] = biological target: T4, HCV NS5B polymerase 1a-H77-C316Y (Hepatitis C virus genotype 1a, UniProt P27958, C2736Y); assay: biochemical; set-up: species or system HCV genotype 1a
T4 construct: six-histidine tag; made in house; host or cells: E. coli
How it was run: as §2

[7] = system: HCV NS5B polymerase 1a-H77-C316Y; assay: biochemical; set-up: species or system HCV genotype 1a; conditions: ratio of enzyme IC50s, 1a H77-C316Y / 1a H77
How it was run: as §2

[8] = system: HCV 1b-Con1 subgenomic replicon; assay: Stable replicon cell culture assay (luciferase), 1b-Con1; 5% FBS, optionally 40% human plasma; type: cell-based, HCV genotype 1b; conditions: Hepatitis C virus
[9] = system: chimeric replicon with genotype 2b NS5B; assay: microbe, parasite or virus in culture; type: cell-based, HCV genotype 2b; conditions: Hepatitis C virus, read-out: 2b chimera 5% FBS EC50
[10] = system: chimeric replicon with genotype 4a NS5B; assay: microbe, parasite or virus in culture; type: cell-based, HCV genotype 4a; conditions: Hepatitis C virus, read-out: 4a chimera 5% FBS EC50
[11] = system: HCV 1a-H77 subgenomic replicon; assay: microbe, parasite or virus in culture; type: cell-based, HCV genotype 1a; conditions: Hepatitis C virus, stable replicon
[12] = system: chimeric replicon with genotype 3a NS5B; assay: microbe, parasite or virus in culture; type: cell-based, HCV genotype 3a; conditions: Hepatitis C virus, read-out: 3a chimera 5% FBS EC50
[13] = system: HCV 1a-H77 C316Y mutant subgenomic replicon; assay: Stable replicon cell culture assay (luciferase), 1a-H77-C316Y mutant; type: cell-based, HCV genotype 1a; conditions: for EC50: Hepatitis C virus, read-out: Stable Replicon 1a H77-C316Y 5% FBS EC50; for Stable Replicon Fold Resistance C316Y/1a: ratio of stable replicon EC50s, C316Y / 1a H77
[14] = system: chimeric replicon with 2a-J6CF-derived NS5B; assay: microbe, parasite or virus in culture; type: cell-based, HCV genotype 2a; conditions: Hepatitis C virus, read-out: 2a chimera 5% FBS EC50
[15] = strain 1b Con1, 5% FBS + 40% human plasma, read-out: 1b Con1 5% FBS + 40% Human Plasma EC50
[16] = strain 1b Con1, 5% FBS, no human plasma, read-out: 1b Con1 5% FBS EC50
[17] = strain 1b Con1, 5% FBS, read-out: 1b Con1 5% FBS EC50
[18] = 5% FBS, absence of human plasma, read-out: Stable Replicon 1a H77 5% FBS EC50
[19] = strain 1a H77, 5% FBS + 40% human plasma, read-out: 1a H77 5% FBS + 40% Human Plasma EC50
[20] = strain 1a H77, 5% FBS, no human plasma, read-out: 1a H77 5% FBS EC50
[21] = strain 1a H77, 5% FBS, read-out: 1a H77 5% FBS EC50

T4 sequence (P27958 2421-2990 C2736Y): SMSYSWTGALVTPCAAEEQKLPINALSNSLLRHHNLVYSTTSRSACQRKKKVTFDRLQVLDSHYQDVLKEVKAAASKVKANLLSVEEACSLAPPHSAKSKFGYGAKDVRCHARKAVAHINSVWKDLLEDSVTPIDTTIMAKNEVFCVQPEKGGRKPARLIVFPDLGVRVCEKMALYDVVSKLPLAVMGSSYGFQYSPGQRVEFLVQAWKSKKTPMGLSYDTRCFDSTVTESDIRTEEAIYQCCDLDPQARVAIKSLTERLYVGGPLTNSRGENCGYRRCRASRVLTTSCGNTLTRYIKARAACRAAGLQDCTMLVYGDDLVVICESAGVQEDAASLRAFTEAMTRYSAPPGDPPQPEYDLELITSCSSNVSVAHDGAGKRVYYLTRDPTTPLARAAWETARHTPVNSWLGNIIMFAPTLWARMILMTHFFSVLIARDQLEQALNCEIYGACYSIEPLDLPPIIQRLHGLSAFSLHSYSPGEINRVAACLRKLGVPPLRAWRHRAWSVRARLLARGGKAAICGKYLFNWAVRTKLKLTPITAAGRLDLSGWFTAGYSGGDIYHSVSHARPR
T3 sequence (P27958 2421-2990): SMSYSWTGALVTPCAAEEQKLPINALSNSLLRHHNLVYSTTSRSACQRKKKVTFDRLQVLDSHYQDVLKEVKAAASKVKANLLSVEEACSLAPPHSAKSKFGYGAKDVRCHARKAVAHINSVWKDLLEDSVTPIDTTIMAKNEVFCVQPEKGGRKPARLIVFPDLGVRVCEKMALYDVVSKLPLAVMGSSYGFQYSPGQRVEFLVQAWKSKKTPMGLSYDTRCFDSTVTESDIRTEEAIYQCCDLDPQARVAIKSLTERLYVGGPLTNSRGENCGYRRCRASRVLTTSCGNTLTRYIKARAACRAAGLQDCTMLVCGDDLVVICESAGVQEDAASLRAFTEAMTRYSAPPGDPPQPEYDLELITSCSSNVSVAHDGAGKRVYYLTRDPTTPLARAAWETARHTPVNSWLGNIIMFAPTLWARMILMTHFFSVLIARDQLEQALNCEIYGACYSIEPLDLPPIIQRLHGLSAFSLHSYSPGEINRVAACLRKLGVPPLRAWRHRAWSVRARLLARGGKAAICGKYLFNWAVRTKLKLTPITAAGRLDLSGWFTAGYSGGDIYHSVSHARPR
T2 sequence (P26663 2420-2989): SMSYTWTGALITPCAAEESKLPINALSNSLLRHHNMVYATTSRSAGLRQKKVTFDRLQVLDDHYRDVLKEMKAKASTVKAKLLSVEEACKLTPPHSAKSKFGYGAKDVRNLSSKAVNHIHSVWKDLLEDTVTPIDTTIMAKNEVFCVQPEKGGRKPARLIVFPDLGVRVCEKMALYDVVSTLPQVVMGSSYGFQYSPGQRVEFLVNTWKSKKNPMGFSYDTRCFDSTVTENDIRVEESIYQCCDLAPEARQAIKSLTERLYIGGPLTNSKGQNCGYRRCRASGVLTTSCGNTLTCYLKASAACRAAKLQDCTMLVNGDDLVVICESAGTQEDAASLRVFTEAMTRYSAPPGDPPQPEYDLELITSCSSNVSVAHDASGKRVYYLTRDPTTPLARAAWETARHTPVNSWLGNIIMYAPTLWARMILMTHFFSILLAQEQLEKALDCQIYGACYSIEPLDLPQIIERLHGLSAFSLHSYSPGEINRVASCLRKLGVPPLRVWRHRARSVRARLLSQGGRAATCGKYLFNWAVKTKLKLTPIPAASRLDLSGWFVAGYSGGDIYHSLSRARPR

For `C=C(c1ccccc1)c1ccc(-c2oc3cc(N(CCC(C)C)S(C)(=O)=O)c(C4CC4)cc3c2-c2ncc[nH]2)cc1` [Example 167, N-{5-cyclopropyl-3-(1H-imidazol-2-yl)-2-[4-(1-phenylvinyl)phenyl]-1-benzofuran-6-yl}-N-(3-methylbutyl)methanesulfonamide], the IC50 [1] was 0.0616 µM, the EC50 [2] was 0.00611 µM and the “Transient Replicon Fold Resistance C316Y/1a” value [2] was 1 fold. For the same molecule, the EC50 [3] was 0.0081 µM, the IC50 [4] was 0.16 µM and the IC50 [5] was 0.0492 µM. The IC50 [6] was 7.9 µM and the “C316Y/1a Fold Resistance” value [7] was 161 fold.
Molecule `CC(C)CCN(c1cc2oc(-c3ccc(Nc4ccccc4)cc3)c(-c3ncc[nH]3)c2cc1C1CC1)S(C)(=O)=O` [Example 18, N-[2-(4-anilinophenyl)-5-cyclopropyl-3-(1H-imidazol-2-yl)-1-benzofuran-6-yl]-N-(3-methylbutyl)methanesulfonamide] has an EC50 [8, 15] of 0.602 µM, an EC50 [8, 16] of 0.0095 µM and an EC50 [8, 17] of 0.0095 µM. The IC50 [1] was 0.0304 µM, the EC50 [2] was 0.0003 µM and the “Transient Replicon Fold Resistance C316Y/1a” value [2] was 0.4 fold. It also gave an EC50 [3] of 0.0007 µM, an IC50 [4] of 0.0856 µM and an IC50 [5] of 0.0258 µM. The IC50 [6] was 0.101 µM, the “C316Y/1a Fold Resistance” value [7] was 4 fold and the EC50 [9] was 0.013 µM. It also gave an EC50 [10] of 0.0094 µM, an EC50 [11, 18] of 0.0054 µM and an EC50 [11, 19] of 0.234 µM. For the same molecule, the EC50 [11, 20] was 0.0054 µM, the EC50 [11, 21] was 0.0054 µM and the EC50 [12] was 0.0123 µM. The EC50 [13] was 0.0038 µM and the “Stable Replicon Fold Resistance C316Y/1a” value [13] was 0.711 fold.
Work on `COc1ccc(-c2nn3ccc(-c4cc(C(=O)NC5(c6ccccc6)CC5)ccc4C)cc3c2C2=NOCCN2)cc1` [Example 19, 3-[3-(5,6-dihydro-4H-1,2,4-oxadiazin-3-yl)-2-(4-methoxyphenyl)pyrazolo[1,5-a]pyridin-5-yl]-4-methyl-N-(1-phenylcyclopropyl)benzamide] yielded an EC50 [8, 15] of 0.0868 µM, an EC50 [8, 16] of 0.0067 µM and an EC50 [8, 17] of 0.0067 µM. For the same molecule, the IC50 [1] was 0.0072 µM, the EC50 [14] was 0.14 µM and the IC50 [4] was 0.15 µM. The IC50 [5] was 0.004 µM, the IC50 [6] was 0.457 µM and the “C316Y/1a Fold Resistance” value [7] was 115 fold. It also gave an EC50 [10] of 0.0202 µM, an EC50 [11, 18] of 0.0332 µM and an EC50 [11, 19] of 0.444 µM. It also gave an EC50 [11, 20] of 0.0332 µM, an EC50 [11, 21] of 0.0332 µM and an EC50 [13] of 1.32 µM. For the same molecule, the “Stable Replicon Fold Resistance C316Y/1a” value [13] was 41.0 fold.
Molecule `COc1ccc(-c2nn3ccc(-c4cc(C(=O)NC5(c6ccccc6)CC5)ccc4C)cc3c2-c2ncc[nH]2)cc1` [Example 191, 3-[3-(1H-imidazol-2-yl)-2-(4-methoxyphenyl)pyrazolo[1,5-a]pyridin-5-yl]-4-methyl-N-(1-phenylcyclopropyl)benzamide] has an IC50 [1] of 0.0084 µM, an IC50 [5] of 0.012 µM and an EC50 [10] of 0.0176 µM.
